{"source": "the supplement of paper PMC11208160", "assay": "recombinant UMI read abundance after kanamycin selection (control-corrected) (log10(CPM+1)); higher = more efficient recombination; extreme values may be limits of the assay; sequences stand for … in AGTGCAGAGAAAATCGGCCAGTTTTCTCTGCCTGCAGTCCGCATGCCGTGGGACCCCTTGGGTTCTAACCTGTTGCCTAGATTTATGCAGCGGACTGCCTTTCTCCCAAAGTGATAAACCGG…AGGTTGGTTTCACT; site = the 11-nt donor", "protocol": "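Pooled E. coli donor-specificity screen for the IS621 bridge recombinase. Each library member carries a reprogrammed 11-nt donor and a full-length LE bridge RNA expressed in cis from the natural promoter, with a paired donor-binding loop (8-nt LDG + 4-nt RDG) and a target-binding loop fixed to T5. It is co-electroporated with a T5 target plasmid; recombinase is induced with 0.07 mM IPTG and recombinants are selected on kanamycin. UMIs are counted as CPM, averaged over two biological replicates and corrected by the unselected control. Molecule = full bridge RNA written as DNA, built from the T5 scaffold: LDG = donor specificity nt 1-8, RDG = reverse complement of nt 8-11.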", "data": [{"sequence": "AATGTGTCATGGACCGGTTTTCCCGGTAATCCGTATTTGAG (site AATGTGTCTAT)", "values": [{"measurement": "recombinant UMI read abundance (log10)", "result": 1.43}]}, {"sequence": "AATGTGTCATGGACCGGTTTTCCCGGTAATCCGTATTTGAG (site AATGTGTCTCT)", "values": [{"measurement": "recombinant UMI read abundance (log10)", "result": 1.82}]}, {"sequence": "AATGTGTCATGGACCGGTTTTCCCGGTAATCCGTATTTGAG (site AATGTGTCTGT)", "values": [{"measurement": "recombinant UMI read abundance (log10)", "result": 0.801}]}, {"sequence": "AATGTGTCATGGACCGGTTTTCCCGGTAATCCGTATTTGAG (site AATGTGTCTTT)", "values": [{"measurement": "recombinant UMI read abundance (log10)", "result": 0.832}]}, {"sequence": "AATGTGTCATGGACCGGTTTTCCCGGTAATCCGTATTTGAT (site AATGTGTCTAT)", "values": [{"measurement": "recombinant UMI read abundance (log10)", "result": 1.66}]}, {"sequence": "AATGTGTCATGGACCGGTTTTCCCGGTAATCCGTATTTGAT (site AATGTGTCTCT)", "values": [{"measurement": "recombinant UMI read abundance (log10)", "result": 0.003}]}, {"sequence": "AATGTGTCATGGACCGGTTTTCCCGGTAATCCGTATTTGAT (site AATGTGTCTGT)", "values": [{"measurement": "recombinant UMI read abundance (log10)", "result": 0}]}, {"sequence": "AATGTGTCATGGACCGGTTTTCCCGGTAATCCGTATTTGAT (site AATGTGTCTTT)", "values": [{"measurement": "recombinant UMI read abundance (log10)", "result": 0.0089}]}, {"sequence": "AATTAGCCATGGACCGGTTTTCCCGGTAATCCGTATTTGAG (site AATTAGCCTCT)", "values": [{"measurement": "recombinant UMI read abundance (log10)", "result": 0.017}]}, {"sequence": "AATTATCCATGGACCGGTTTTCCCGGTAATCCGTATTTGGA (site AATTATACTTC)", "values": [{"measurement": "recombinant UMI read abundance (log10)", "result": 0.126}]}, {"sequence": "AATTATCCATGGACCGGTTTTCCCGGTAATCCGTATTTGGA (site AATTATCCTTC)", "values": [{"measurement": "recombinant UMI read abundance (log10)", "result": 0}]}, {"sequence": "AATTATCCATGGACCGGTTTTCCCGGTAATCCGTATTTGGA (site AATTATGCTTC)", "values": [{"measurement": "recombinant UMI read abundance (log10)", "result": 0.0173}]}, {"sequence": "AATTATCCATGGACCGGTTTTCCCGGTAATCCGTATTTGGA (site AATTATTCTTC)", "values": [{"measurement": "recombinant UMI read abundance (log10)", "result": 0.322}]}, {"sequence": "AATTATGCATGGACCGGTTTTCCCGGTAATCCGTATTTGGA (site AAATATGCTTC)", "values": [{"measurement": "recombinant UMI read abundance (log10)", "result": 1.34}]}, {"sequence": "AATTATGCATGGACCGGTTTTCCCGGTAATCCGTATTTGGA (site AACTATGCTTC)", "values": [{"measurement": "recombinant UMI read abundance (log10)", "result": 1.02}]}, {"sequence": "AATTATGCATGGACCGGTTTTCCCGGTAATCCGTATTTGGA (site AAGTATGCTTC)", "values": [{"measurement": "recombinant UMI read abundance (log10)", "result": 1.19}]}, {"sequence": "AATTATGCATGGACCGGTTTTCCCGGTAATCCGTATTTGGA (site AATAATGCTTC)", "values": [{"measurement": "recombinant UMI read abundance (log10)", "result": 0.535}]}, {"sequence": "AATTATGCATGGACCGGTTTTCCCGGTAATCCGTATTTGGA (site AATCATGCTTC)", "values": [{"measurement": "recombinant UMI read abundance (log10)", "result": 0.445}]}, {"sequence": "AATTATGCATGGACCGGTTTTCCCGGTAATCCGTATTTGGA (site AATGATGCTTC)", "values": [{"measurement": "recombinant UMI read abundance (log10)", "result": 0.482}]}, {"sequence": "AATTATGCATGGACCGGTTTTCCCGGTAATCCGTATTTGGA (site AATTAAGCTTC)", "values": [{"measurement": "recombinant UMI read abundance (log10)", "result": 0.54}]}, {"sequence": "AATTATGCATGGACCGGTTTTCCCGGTAATCCGTATTTGGA (site AATTACGCTTC)", "values": [{"measurement": "recombinant UMI read abundance (log10)", "result": 0.439}]}, {"sequence": "AATTATGCATGGACCGGTTTTCCCGGTAATCCGTATTTGGA (site AATTAGGCTTC)", "values": [{"measurement": "recombinant UMI read abundance (log10)", "result": 0.38}]}, {"sequence": "AATTATGCATGGACCGGTTTTCCCGGTAATCCGTATTTGGA (site AATTATACTTC)", "values": [{"measurement": "recombinant UMI read abundance (log10)", "result": 0.816}]}, {"sequence": "AATTATGCATGGACCGGTTTTCCCGGTAATCCGTATTTGGA (site AATTATCCTTC)", "values": [{"measurement": "recombinant UMI read abundance (log10)", "result": 0.447}]}, {"sequence": "AATTATGCATGGACCGGTTTTCCCGGTAATCCGTATTTGGA (site AATTATGCTAC)", "values": [{"measurement": "recombinant UMI read abundance (log10)", "result": 0.0199}]}, {"sequence": "AATTATGCATGGACCGGTTTTCCCGGTAATCCGTATTTGGA (site AATTATGCTCC)", "values": [{"measurement": "recombinant UMI read abundance (log10)", "result": 0.0288}]}, {"sequence": "AATTATGCATGGACCGGTTTTCCCGGTAATCCGTATTTGGA (site AATTATGCTGC)", "values": [{"measurement": "recombinant UMI read abundance (log10)", "result": 0}]}, {"sequence": "AATTATGCATGGACCGGTTTTCCCGGTAATCCGTATTTGGA (site AATTATGCTTA)", "values": [{"measurement": "recombinant UMI read abundance (log10)", "result": 0.00642}]}, {"sequence": "AATTATGCATGGACCGGTTTTCCCGGTAATCCGTATTTGGA (site AATTATGCTTC)", "values": [{"measurement": "recombinant UMI read abundance (log10)", "result": 0.373}]}, {"sequence": "AATTATGCATGGACCGGTTTTCCCGGTAATCCGTATTTGGA (site AATTATGCTTG)", "values": [{"measurement": "recombinant UMI read abundance (log10)", "result": 0}]}, {"sequence": "AATTATGCATGGACCGGTTTTCCCGGTAATCCGTATTTGGA (site AATTATGCTTT)", "values": [{"measurement": "recombinant UMI read abundance (log10)", "result": 0.359}]}, {"sequence": "AATTATGCATGGACCGGTTTTCCCGGTAATCCGTATTTGGA (site AATTATTCTTC)", "values": [{"measurement": "recombinant UMI read abundance (log10)", "result": 0.941}]}, {"sequence": "AATTATGCATGGACCGGTTTTCCCGGTAATCCGTATTTGGA (site AATTCTGCTTC)", "values": [{"measurement": "recombinant UMI read abundance (log10)", "result": 0.313}]}, {"sequence": "AATTATGCATGGACCGGTTTTCCCGGTAATCCGTATTTGGA (site AATTGTGCTTC)", "values": [{"measurement": "recombinant UMI read abundance (log10)", "result": 0.266}]}, {"sequence": "AATTATGCATGGACCGGTTTTCCCGGTAATCCGTATTTGGA (site AATTTTGCTTC)", "values": [{"measurement": "recombinant UMI read abundance (log10)", "result": 0.00678}]}, {"sequence": "AATTATGCATGGACCGGTTTTCCCGGTAATCCGTATTTGGA (site ACTTATGCTTC)", "values": [{"measurement": "recombinant UMI read abundance (log10)", "result": 0.937}]}]}
